Source: article PMC11285769, “A pan-respiratory antiviral chemotype targeting a transient host multi-protein complex” (Open Biology, 2024)
Where “and” joins values, the source holds several entries; their conditions need not be identical. Equal entries are not always repeated.

Tests used:
FLUV A/WSN/33 = type: cell-based, influenza A/WSN/33
[1] = test system: SARS-CoV-2 gamma variant, lineage P.1; type: cell-based
[2] = test system: SARS-CoV-2 delta variant (lineage B.1.617.2); type: cell-based
[3] = test system: SARS-CoV-2 Omicron variant (lineage B.A.1); type: cell-based

Compound	activity against FLUV after 7 passages with compound (FLUV A/WSN/33)	percentage reduction in infection (FLUV A/WSN/33)	viral load eliminated compared to vehicle [1] [%]	efficacy against SARS-CoV-2 delta variant [2]	efficacy against SARS-CoV-2 Omicron [3]
COc1cccc(CNC(=O)c2cc(C3CC3)nn2C)c1OC [PAV-835]	retained the same activity against FLUV as it did against a naive strain	98.9 percentage and 91.9 percentage	–	–	–
COc1c(CNC(=O)c2cc(C3CC3)nn2C)cccc1OC(F)(F)F [PAV-431]	–	–	≥ 90	clear trend	significant efficacy
CCOC(=O)C1=C[C@@H](OC(CC)CC)[C@H](NC(C)=O)[C@@H](N)C1 [Oseltamivir, reference compound]	lost activity by passage 7	–	–	–	–
